Patent publication US20100273816A1, “Quinazoline Compounds” (priority 2007, published 2010)

Legend:
human LXRβ = molecular target: T1, human LXRβ (Homo sapiens, UniProt P55055); test: Ligand-binding test procedure for human LXRβ (3H T0901317 tracer, flash plates); conditions: biotinylated hLXRβ from E. coli extract, +4° C. over night, read-out: hLXRB binding assay Mean IC50
T1 construct: biotin (biotinylated); made in house; host or cells: E. coli (crude extract)
T1 sequence (P55055 1-460): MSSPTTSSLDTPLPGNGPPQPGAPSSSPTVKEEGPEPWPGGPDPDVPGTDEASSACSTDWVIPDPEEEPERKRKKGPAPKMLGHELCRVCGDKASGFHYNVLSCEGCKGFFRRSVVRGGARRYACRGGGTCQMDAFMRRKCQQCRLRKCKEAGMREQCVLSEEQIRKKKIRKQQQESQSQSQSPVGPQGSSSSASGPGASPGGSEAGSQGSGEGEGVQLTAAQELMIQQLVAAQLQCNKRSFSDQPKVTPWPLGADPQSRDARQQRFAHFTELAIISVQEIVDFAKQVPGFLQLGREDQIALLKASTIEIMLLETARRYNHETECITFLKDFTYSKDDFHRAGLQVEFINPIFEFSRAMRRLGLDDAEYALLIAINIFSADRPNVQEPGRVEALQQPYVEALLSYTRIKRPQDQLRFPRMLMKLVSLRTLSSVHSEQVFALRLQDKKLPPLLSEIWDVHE
Description: I. Ligand-Binding Test Procedure for Human LXRβ.
(§1) Buffer: 100 mM KCl, 100 mM TRIS (pH 7.4 at +4° C.), 8.6% glycerol, 0.1 mM PMSF*, 2 mM MTG*, 0.2% CHAPS (* not used in wash buffer)
Receptor source: E. coli extract from cells expressing biotinylated hLXRβ. Extract was made in a similar buffer as above, but with 50 mM TRIS.
(§2) Washed streptavidin and coated flash plates with wash buffer.
(§3) Diluted receptor extract to give Bmax ˜4000 cpm and add to the wells.
(§4) Wrapped the plates in aluminum foil and stored them at +4° C. over night.
(§5) Made a dilution series in DMSO of the test ligands.
(§6) Made a 5 nM solution of the radioactive tracer in buffer.
Mixed 250 μl diluted tracer with 50 of the test ligand from each concentration of the dilution series.
(§7) Washed the receptor-coated flash plates.
(§8) Added 200 μl per well of the ligand/radiolabel mixture to the receptor-coated flash plates.
(§9) Wrapped the plates in aluminum foil and incubate at +4° C. over night.
(§10) Aspirated wells, and wash the flashed plates. Sealed the plate.
(§11) Measured the remaining radioactivity in the plate.

human LXRα = molecular target: T2, human LXRα (Homo sapiens, UniProt Q13133); test: Ligand-binding test procedure for human LXRα (3H T0901317 tracer, flash plates); conditions: biotinylated hLXRα from E. coli extract, +4° C. over night, read-out: hLXRa binding assay Mean IC50
T2 construct: biotin (biotinylated); made in house; host or cells: E. coli (crude extract)
T2 sequence (Q13133 1-447): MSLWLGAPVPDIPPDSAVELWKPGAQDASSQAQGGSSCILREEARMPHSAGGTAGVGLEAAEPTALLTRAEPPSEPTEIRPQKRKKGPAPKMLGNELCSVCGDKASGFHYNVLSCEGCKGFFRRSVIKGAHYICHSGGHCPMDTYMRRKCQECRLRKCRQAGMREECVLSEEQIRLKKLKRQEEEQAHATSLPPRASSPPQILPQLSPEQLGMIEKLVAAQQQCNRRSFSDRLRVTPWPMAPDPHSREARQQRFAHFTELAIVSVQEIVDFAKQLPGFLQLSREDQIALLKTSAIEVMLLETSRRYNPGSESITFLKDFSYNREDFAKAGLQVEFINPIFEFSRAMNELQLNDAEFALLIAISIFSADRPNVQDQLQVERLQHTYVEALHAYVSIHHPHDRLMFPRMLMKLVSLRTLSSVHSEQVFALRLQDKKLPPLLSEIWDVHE
Description: II. Ligand-Binding Test Procedure for Human LXRα.
as §1
Receptor source: E. coli extract from cells expressing biotinylated hLXRα. Extract was made in a similar buffer as above, but with 50 mM TRIS.
as §2, §3, §4, §5, §6
Mixed 250 μl diluted tracer with 5 μl of the test ligand from each concentration of the dilution series.
as §7, §8, §9, §10, §11

IC50 (human LXRβ) | IC50 (human LXRα) | Compound
0.005 µM | 0.177 µM | CS(=O)(=O)c1cccc(Oc2ccc(Cl)c(-c3ncnc4c(C(F)(F)F)cccc34)c2)c1 [Example 49, 4-{2-chloro-5-[3-(methylsulfonyl)phenoxy]phenyl}-8-(trifluoromethyl)quinazoline]
0.005 µM | 0.236 µM | CCS(=O)(=O)c1cccc(Oc2ccc(Cl)c(-c3ncnc4c(C(F)(F)F)cccc34)c2)c1 [Example 50, 4-{2-chloro-5-[3-(ethylsulfonyl)phenoxy]phenyl}-8-(trifluoromethyl)quinazoline]
0.002 µM | 0.119 µM | CC(C)S(=O)(=O)c1cccc(Oc2ccc(Cl)c(-c3ncnc4c(C(F)(F)F)cccc34)c2)c1 [Example 51, 4-{2-chloro-5-[3-(isopropylsulfonyl)phenoxy]phenyl}-8-(trifluoromethyl)quinazoline]
0.014 µM | 0.284 µM | CS(=O)(=O)c1cccc(Oc2ccc(F)c(-c3ncnc4c(C(F)(F)F)cccc34)c2)c1 [Example 52, 4-{2-fluoro-5-[3-(methylsulfonyl)phenoxy]phenyl}-8-(trifluoromethyl)quinazoline]
0.008 µM | 0.233 µM | CCS(=O)(=O)c1cccc(Oc2ccc(F)c(-c3ncnc4c(C(F)(F)F)cccc34)c2)c1 [Example 53, 4-{5-[3-(ethylsulfonyl)phenoxy]-2-fluorophenyl}-8-(trifluoromethyl)quinazoline]
0.005 µM | 0.176 µM | CC(C)S(=O)(=O)c1cccc(Oc2ccc(F)c(-c3ncnc4c(C(F)(F)F)cccc34)c2)c1 [Example 54, 4-{2-fluoro-5-[3-(isopropylsulfonyl)phenoxy]phenyl}-8-(trifluoromethyl)quinazoline]
0.035 µM | 0.782 µM | CS(=O)(=O)c1cc(F)cc(Oc2ccc(F)c(-c3ncnc4c(C(F)(F)F)cccc34)c2)c1 [Example 55, 4-{2-fluoro-5-[3-fluoro-5-(methylsulfonyl)phenoxy]phenyl}-8-(trifluoromethyl)quinazoline]
0.044 µM | 0.787 µM | CS(=O)(=O)c1cccc(COc2ccc(F)c(-c3ncnc4c(C(F)(F)F)cccc34)c2)c1 [Example 56, 4-(2-fluoro-5-{[3-(methylsulfonyl)benzyl]oxy}phenyl)-8-(trifluoromethyl)quinazoline]
0.214 µM | 2.34 µM | CS(=O)(=O)c1cc(Cl)cc(Oc2ccc(F)c(-c3ncnc4c(C(F)(F)F)cccc34)c2)c1 [Example 57, 4-{5-[3-chloro-5-(methylsulfonyl)phenoxy]-2-fluorophenyl}-8-(trifluoromethyl)quinazoline]
0.02 µM | 1.36 µM | Cc1nc(-c2cc(Oc3cccc(S(C)(=O)=O)c3)ccc2Cl)c2cccc(C(F)(F)F)c2n1 [Example 58, 4-{2-chloro-5-[3-(methylsulfonyl)phenoxy]phenyl}-2-methyl-8-(trifluoromethyl)quinazoline]
0.019 µM | 2.37 µM | CCS(=O)(=O)c1cccc(Oc2ccc(Cl)c(-c3nc(C)nc4c(C(F)(F)F)cccc34)c2)c1 [Example 59, 4-{2-chloro-5-[3-(ethylsulfonyl)phenoxy]phenyl}-2-methyl-8-(trifluoromethyl)quinazoline]
0.016 µM | 0.524 µM | Cc1nc(-c2cc(Oc3cccc(S(=O)(=O)C(C)C)c3)ccc2Cl)c2cccc(C(F)(F)F)c2n1 [Example 60, 4-{2-chloro-5-[3-(isopropylsulfonyl)phenoxy]phenyl}-2-methyl-8-(trifluoromethyl)quinazoline]
0.049 µM | 1.79 µM | Cc1nc(-c2cc(Oc3cc(F)cc(S(C)(=O)=O)c3)ccc2Cl)c2cccc(C(F)(F)F)c2n1 [Example 61, 4-{2-chloro-5-[3-fluoro-5-(methylsulfonyl)phenoxy]phenyl}-2-methyl-8-(trifluoromethyl)quinazoline]
0.063 µM | 1.43 µM | CCS(=O)(=O)c1cc(F)cc(Oc2ccc(Cl)c(-c3nc(C)nc4c(C(F)(F)F)cccc34)c2)c1 [Example 62, 4-{2-chloro-5-[3-(ethylsulfonyl)-5-fluorophenoxy]phenyl}-2-methyl-8-(trifluoromethyl)quinazoline]
0.181 µM | 3.38 µM | Cc1nc(-c2cc(OCc3cccc(S(C)(=O)=O)c3)ccc2Cl)c2cccc(C(F)(F)F)c2n1 [Example 63, 4-(2-chloro-5-{[3-(methylsulfonyl)benzyl]oxy}phenyl)-2-methyl-8-(trifluoromethyl)quinazoline]
0.081 µM | 1.83 µM | CS(=O)(=O)c1cc(F)cc(Oc2ccc(F)c(-c3ncnc4c(Cl)cccc34)c2)c1 [Example 64, 8-chloro-4-{2-fluoro-5-[3-fluoro-5-(methylsulfonyl)phenoxy]phenyl}quinazoline]
0.152 µM | 2.95 µM | CCS(=O)(=O)c1cc(F)cc(Oc2ccc(F)c(-c3ncnc4c(Cl)cccc34)c2)c1 [Example 65, 8-chloro-4-{5-[3-(ethylsulfonyl)-5-fluorophenoxy]-2-fluorophenyl}quinazoline]
0.099 µM | 1.54 µM | CS(=O)(=O)c1cccc(COc2ccc(F)c(-c3ncnc4c(Cl)cccc34)c2)c1 [Example 66, 8-chloro-4-(2-fluoro-5-{[3-(methylsulfonyl)benzyl)oxy]phenyl}quinazoline]
0.036 µM | 0.712 µM | CCS(=O)(=O)c1cccc(Oc2ccc(F)c(-c3ncnc4c(Cl)cccc34)c2)c1 [Example 67, 8-chloro-4-{2-fluoro-5-[3-(ethylsulfonyl)phenoxy]phenyl}quinazoline]
0.015 µM | 0.597 µM | CC(C)S(=O)(=O)c1cccc(Oc2ccc(F)c(-c3ncnc4c(Cl)cccc34)c2)c1 [Example 68, 8-chloro-4-(2-fluoro-5-{[3-(1-methylethyl)sulfonyl]phenoxy}phenyl)quinazoline]
0.095 µM | 0.265 µM | O=S(=O)(CCCOC1CCCCO1)c1cccc(Oc2ccc(F)c(-c3ncnc4c(Cl)cccc34)c2)c1 (stereo not drawn) [Example 69, 8-chloro-4-[2-fluoro-5-(3-{[3-(tetrahydro-2H-pyran-2-yloxy)propyl]sulfonyl}phenoxy)phenyl]quinazoline]
0.182 µM | 2.52 µM | O=S(=O)(CCCO)c1cccc(Oc2ccc(F)c(-c3ncnc4c(Cl)cccc34)c2)c1 [Example 73, 3-({3-[3-(8-chloroquinazolin-4-yl)-4-fluorophenoxy]phenyl}sulfonyl)propan-1-ol]
0.02 µM | 0.718 µM | CS(=O)(=O)c1cccc(Oc2ccc(F)c(-c3ncnc4c(Cl)cccc34)c2)c1 [Example 75, 8-chloro-4-{2-fluoro-5-[3-(methylsulfonyl)phenoxy]phenyl}quinazoline]
0.153 µM | 0.714 µM | CS(=O)(=O)c1cccc(-c2cccc(-c3nc(C4CC4)nc4c(C(F)(F)F)cccc34)c2)c1 [Example 76, 2-cyclopropyl-4-[3′-(methylsulfonyl)biphenyl-3-yl]-8-(trifluoromethyl)quinazoline]
0.344 µM | 10.4 µM | COc1cccc2c(-c3cc(Oc4cccc(S(C)(=O)=O)c4)ccc3Cl)ncnc12 [Example 77, 4-{2-chloro-5-[3-(methylsulfonyl)phenoxy]phenyl}-8-methoxyquinazoline]
0.026 µM | 0.325 µM | CS(=O)(=O)c1cccc(Oc2ccc(Cl)c(-c3ncnc4c(Cl)cccc34)c2)c1 [Example 78, 8-chloro-4-{2-chloro-5-[3-(methylsulfonyl)phenoxy]phenyl}quinazoline]
0.047 µM | 0.714 µM | O=S(=O)(CCCO)c1cccc(Oc2ccc(F)c(-c3ncnc4c(C(F)(F)F)cccc34)c2)c1 [Example 93, 3-[(3-{4-fluoro-3-[8-(trifluoromethyl)quinazolin-4-yl]phenoxy}phenyl)sulfonyl]propan-1-ol]
